Experimental data published in ChEMBL document CHEMBL1201862, “PubChem BioAssay data set” (2004).
Structures can show the parent of a compound that is named as a salt.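 Results reflect a 48-hour exposure of cells in 96-well plates to compound at five concentrations. Here, GI50 denotes the concentration required for 50% inhibition of growth.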 Calls of active or inactive are those of the source. Cut-off read from the data, not from the text of the source: active = GI50 up to about 1.1 µM and inactive = higher.

Legend:
Assay in all cases: inhibition of tumour cell growth, NCI panel, 48 h
DLD-1 = tested on: DLD-1
DMS-273 = tested on: DMS-273
HOP-18 = tested on: HOP-18
KM-20L2 = tested on: KM-20L2
LXFL 529 = tested on: LXFL 529
RXF 631 = tested on: RXF 631
BT-549 = tested on: BT-549
Hs-578T = tested on: Hs-578T
MDA-N = tested on: MDA-N

With `COc1nc(N)c(NC(C)=O)c(=O)n1C` the GI50 (DLD-1) was > 100 µM (inactive), the GI50 (DMS-273) was > 100 µM (inactive) and the GI50 (HOP-18) was > 100 µM (inactive). The GI50 (KM-20L2) was > 100 µM (inactive), the GI50 (LXFL 529) was > 100 µM (inactive) and the GI50 (RXF 631) was > 100 µM (inactive).
`CCCCN1C=CN2c3nc4cc(C)c(C)cc4n3C(C(=O)OC)=C(C(=O)OC)C12` (stereo not given) was tested, and the GI50 (DLD-1) was > 100 µM (inactive), the GI50 (DMS-273) was > 100 µM (inactive) and the GI50 (HOP-18) was > 100 µM (inactive). The GI50 (KM-20L2) was > 100 µM (inactive) and the GI50 (LXFL 529) was > 100 µM (inactive).
`CCOC(=O)/C(C#N)=C(N)/C(=N\Nc1cccc(C(F)(F)F)c1)C(=O)OCC` was tested, and the GI50 (DLD-1) was > 100 µM (inactive), the GI50 (DMS-273) was > 100 µM (inactive) and the GI50 (HOP-18) was > 100 µM (inactive). For the same compound, the GI50 (KM-20L2) was > 100 µM (inactive) and the GI50 (LXFL 529) was > 100 µM (inactive).
With `CC(=O)Nc1ccc(-c2nnc(SCC(=O)Nc3ccccc3)o2)cc1` the GI50 (DLD-1) was 59 µM (inactive), the GI50 (DMS-273) was 50.6 µM (inactive) and the GI50 (HOP-18) was > 100 µM (inactive). For the same compound, the GI50 (KM-20L2) was > 100 µM (inactive) and the GI50 (LXFL 529) was 34.6 µM (inactive).
With `COC(=O)C1CC2(c3ccccc3)C(=O)c3ccccc3N2O1` (stereo not given) the GI50 (DLD-1) was 78.7 µM (inactive), the GI50 (DMS-273) was 31.6 µM (inactive) and the GI50 (HOP-18) was > 100 µM (inactive). For the same compound, the GI50 (KM-20L2) was > 100 µM (inactive) and the GI50 (LXFL 529) was 50 µM (inactive).
`CC1(C)OC(C(N)=O)=C(C(N)=O)O1` was tested, and the GI50 (DLD-1) was > 100 µM (inactive), the GI50 (DMS-273) was > 100 µM (inactive) and the GI50 (HOP-18) was > 100 µM (inactive). For the same compound, the GI50 (KM-20L2) was > 100 µM (inactive) and the GI50 (LXFL 529) was > 100 µM (inactive).
With `CC1CCCP(=O)(c2ccccc2)CC1` (stereo not given) the GI50 (DLD-1) was > 100 µM (inactive), the GI50 (DMS-273) was > 100 µM (inactive) and the GI50 (HOP-18) was 0.202 µM (active). The GI50 (KM-20L2) was > 100 µM (inactive), the GI50 (LXFL 529) was > 100 µM (inactive) and the GI50 (RXF 631) was > 100 µM (inactive).
In the case of `COc1ccc(-c2cc(N3CCN(c4ccc(Cl)cc4)CC3)c(C#N)c(=O)o2)cc1`, the GI50 (DLD-1) is reported as 25.8 µM (inactive), the GI50 (DMS-273) is reported as 16.3 µM (inactive) and the GI50 (HOP-18) is reported as 4.24 µM (inactive). For the same compound, the GI50 (KM-20L2) was > 100 µM (inactive) and the GI50 (LXFL 529) was 16.7 µM (inactive).
In the case of `COc1ccc(C(=O)C(C(=O)C(=O)NCCCNC(=O)C(=O)C(C(=O)c2ccc(OC)cc2)c2ccc(OC)cc2)c2ccc(OC)cc2)cc1` (stereo not given), the GI50 (DLD-1) is reported as > 100 µM (inactive), the GI50 (DMS-273) is reported as > 100 µM (inactive) and the GI50 (HOP-18) is reported as > 100 µM (inactive). For the same compound, the GI50 (KM-20L2) was > 100 µM (inactive) and the GI50 (LXFL 529) was > 100 µM (inactive).
In the case of `Cc1ccc(/C=C/C(=O)c2ccc([N+](=O)[O-])cc2)cc1`, the GI50 (DLD-1) is reported as 99.8 µM (inactive), the GI50 (DMS-273) is reported as > 100 µM (inactive) and the GI50 (HOP-18) is reported as > 100 µM (inactive). For the same compound, the GI50 (KM-20L2) was > 100 µM (inactive), the GI50 (LXFL 529) was 74.3 µM (inactive) and the GI50 (RXF 631) was > 100 µM (inactive).
With `Cc1ccc(NC(=O)/C(CC(=O)c2c[n+]([O-])c3ccccc3[n+]2[O-])=N\NC(=O)C[n+]2ccccc2)cc1` the GI50 (DLD-1) was > 100 µM (inactive), the GI50 (DMS-273) was > 100 µM (inactive) and the GI50 (HOP-18) was > 100 µM (inactive). The GI50 (KM-20L2) was > 100 µM (inactive), the GI50 (LXFL 529) was > 100 µM (inactive) and the GI50 (RXF 631) was > 100 µM (inactive).
With `CS(=O)(=O)OCCN(CCOS(C)(=O)=O)c1ccc(/C=N/c2ccc(-c3csc(COc4ccccc4)n3)cc2)cc1` the GI50 (BT-549) was 10.7 µM (inactive), the GI50 (DLD-1) was 13.1 µM (inactive) and the GI50 (DMS-273) was 0.46 µM (active). For the same compound, the GI50 (HOP-18) was 5.25 µM (inactive), the GI50 (Hs-578T) was 15.1 µM (inactive) and the GI50 (KM-20L2) was 3.14 µM (inactive). For the same compound, the GI50 (LXFL 529) was 12.1 µM (inactive) and the GI50 (MDA-N) was 11 µM (inactive).
In the case of `Cc1cc(Cl)ccc1NC(=O)CCCC(=O)C(C(=O)c1ccccc1)c1ccccc1` (stereo not given), the GI50 (DLD-1) is reported as > 100 µM (inactive), the GI50 (DMS-273) is reported as > 100 µM (inactive) and the GI50 (KM-20L2) is reported as > 100 µM (inactive). The GI50 (LXFL 529) was > 100 µM (inactive) and the GI50 (RXF 631) was > 100 µM (inactive).
`C/C=C1/C(=Cc2[nH]c(C=c3[nH]/c(=C/C4=NC(=O)C(CC)=C4C)c(C)c3CCC(=O)O)c(CCC(=O)O)c2C)NC(=O)C1C` (stereo not given) was tested, and the GI50 (DLD-1) was 2.58 µM (inactive), the GI50 (DMS-273) was 5.45 µM (inactive) and the GI50 (HOP-18) was 30.2 µM (inactive). For the same compound, the GI50 (KM-20L2) was 2.03 µM (inactive), the GI50 (LXFL 529) was 2.06 µM (inactive) and the GI50 (RXF 631) was 6.65 µM (inactive).
`COC(=O)C1=C(C(=O)OC)SC(=C(/N=N/c2ccccc2)c2ccccc2)S1` was tested, and the GI50 (DLD-1) was > 100 µM (inactive), the GI50 (DMS-273) was > 100 µM (inactive) and the GI50 (HOP-18) was > 100 µM (inactive). The GI50 (KM-20L2) was > 100 µM (inactive), the GI50 (LXFL 529) was 58.5 µM (inactive) and the GI50 (RXF 631) was > 100 µM (inactive).
`O=C1c2cccc3c2C(=O)c2c(cccc21)OCCOCCOCCOCCO3` was tested, and the GI50 (DLD-1) was > 100 µM (inactive), the GI50 (DMS-273) was > 100 µM (inactive) and the GI50 (HOP-18) was > 100 µM (inactive). The GI50 (KM-20L2) was > 100 µM (inactive), the GI50 (LXFL 529) was > 100 µM (inactive) and the GI50 (RXF 631) was 91.6 µM (inactive).
With `COC(=O)[C@]1(C)CCCC2(C)C1CC[C@H]1C=C(C)[C@H]3CCC12C3` (stereo not given in full) the GI50 (DLD-1) was > 100 µM (inactive), the GI50 (KM-20L2) was > 100 µM (inactive) and the GI50 (LXFL 529) was > 100 µM (inactive). For the same compound, the GI50 (RXF 631) was > 100 µM (inactive).
In the case of `CC(=O)N[C@@H]1C(O)CN2C(=O)C(=O)O[C@H](C(O)CO)[C@@H]12` (stereo not given in full), the GI50 (DLD-1) is reported as > 100 µM (inactive), the GI50 (DMS-273) is reported as > 100 µM (inactive) and the GI50 (HOP-18) is reported as 74 µM (inactive). For the same compound, the GI50 (KM-20L2) was > 100 µM (inactive), the GI50 (LXFL 529) was > 100 µM (inactive) and the GI50 (RXF 631) was > 100 µM (inactive).
With `CCOC(=O)Nc1ccc(S(=O)(=O)OC)cc1.CCOC(=O)Nc1ccc(S(=O)(=O)OC)cc1.NC(=O)NCCO` the GI50 (DLD-1) was 7.08 µM (inactive), the GI50 (DMS-273) was 29.2 µM (inactive) and the GI50 (HOP-18) was 49.4 µM (inactive). For the same compound, the GI50 (KM-20L2) was > 50 µM (inactive), the GI50 (LXFL 529) was 29.4 µM (inactive) and the GI50 (RXF 631) was 46.5 µM (inactive).
With `O=C1c2c(O)cccc2-c2nn(CCNCCO)c3ccc(NCCNCCO)c1c23` [LOSOXANTRONE HYDROCHLORIDE] the GI50 (BT-549) was 0.182 µM (active), the GI50 (DLD-1) was 1.24 µM (inactive) and the GI50 (DMS-273) was 0.0288 µM (active). The GI50 (HOP-18) was 0.248 µM (active), the GI50 (Hs-578T) was 0.0791 µM (active) and the GI50 (KM-20L2) was 1.66 µM (inactive). For the same compound, the GI50 (LXFL 529) was 0.107 µM (active), the GI50 (MDA-N) was 0.48 µM (active) and the GI50 (RXF 631) was 0.318 µM (active).
